Results taken from PubChem BioAssay AID256 (DTP/NCI, 2004).
Where “and” joins values, the source holds several entries; their conditions need not be identical. Equal entries are not always repeated. Toxic doses and inconclusive results are not listed.

Tested on: CD2F1 mice, L1210 leukemia ip, survival T/C
Assay: NCI In Vivo Anticancer Drug Screen. Data for tumor model L1210 Leukemia (intraperitoneal) in CD2F1 (CDF1) mice
Settings: higher = longer survival
In short: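 Activity against a transplanted murine tumor was judged by comparing the compound group with a vehicle group. The outcome in the treated animals was divided by that in the controls.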

[1] = endpoint: mean survival time, dose: 100.0 mg/kg/injection, schedule: Q04DX003 (ip), vehicle: Klucel (hydroxypropylcellulose) (HPC)
[2] = endpoint: mean survival time, dose: 200.0 mg/kg/injection, schedule: Q04DX003 (ip), vehicle: Klucel (hydroxypropylcellulose) (HPC)
[3] = endpoint: mean survival time, dose: 400.0 mg/kg/injection, schedule: Q04DX003 (ip), vehicle: Klucel (hydroxypropylcellulose) (HPC)
[4] = endpoint: mean survival time, dose: 100.0 mg/kg/injection, schedule: Q04DX003 (ip), vehicle: saline with Tween-80
[5] = endpoint: mean survival time, dose: 200.0 mg/kg/injection, schedule: Q04DX003 (ip), vehicle: saline with Tween-80
[6] = endpoint: mean survival time, dose: 400.0 mg/kg/injection, schedule: Q04DX003 (ip), vehicle: saline with Tween-80
[7] = endpoint: mean survival time, dose: 100.0 mg/kg/injection, schedule: Q01DX001 (ip), vehicle: saline
[8] = endpoint: mean survival time, dose: 200.0 mg/kg/injection, schedule: Q01DX001 (ip), vehicle: saline
[9] = endpoint: mean survival time, dose: 50.0 mg/kg/injection, schedule: Q01DX009 (ip), vehicle: saline with Tween-80
[10] = endpoint: mean survival time, dose: 100.0 mg/kg/injection, schedule: Q01DX009 (ip), vehicle: saline with Tween-80
[11] = endpoint: mean survival time, dose: 200.0 mg/kg/injection, schedule: Q01DX009 (ip), vehicle: saline with Tween-80
[12] = endpoint: mean survival time, dose: 100.0 mg/kg/injection, schedule: Q01DX009 (ip), vehicle: Klucel (hydroxypropylcellulose) (HPC)
[13] = endpoint: mean survival time, dose: 200.0 mg/kg/injection, schedule: Q01DX009 (ip), vehicle: Klucel (hydroxypropylcellulose) (HPC)
[14] = endpoint: mean survival time, dose: 100.0 mg/kg/injection, schedule: Q01DX001 (ip), vehicle: saline with Tween-80
[15] = endpoint: mean survival time, dose: 200.0 mg/kg/injection, schedule: Q01DX001 (ip), vehicle: saline with Tween-80
[16] = endpoint: mean survival time, dose: 400.0 mg/kg/injection, schedule: Q01DX001 (ip), vehicle: saline with Tween-80
[17] = endpoint: mean survival time, dose: 25.0 mg/kg/injection, schedule: Q04DX003 (ip), vehicle: saline with Tween-80
[18] = endpoint: mean survival time, dose: 50.0 mg/kg/injection, schedule: Q04DX003 (ip), vehicle: saline with Tween-80
[19] = endpoint: mean survival time, dose: 100.0 mg/kg/injection, schedule: Q04DX002 (ip), vehicle: saline with Tween-80
[20] = endpoint: mean survival time, dose: 200.0 mg/kg/injection, schedule: Q04DX002 (ip), vehicle: saline with Tween-80
[21] = endpoint: mean survival time, dose: 25.0 mg/kg/injection, schedule: Q04DX002 (ip), vehicle: saline with Tween-80
[22] = endpoint: mean survival time, dose: 50.0 mg/kg/injection, schedule: Q04DX002 (ip), vehicle: saline with Tween-80

C#CCCOC(=O)Nc1ccccc1
T/C [1]: 97 % of control | T/C [2]: 100 % of control | T/C [3]: 110 % of control

CCOC(OCC)c1ccccc1 (tested in a mixture with another compound)
T/C [4]: 97 % of control | T/C [5]: 97 % of control | T/C [6]: 97 % of control

CSc1nc(N)c2ncn(C3C=CC(O)CO3)c2n1 (stereo not drawn)
T/C (endpoint: mean survival time, dose: 50.0 mg/kg/injection, schedule: Q01DX001 (ip), vehicle: saline): 106 % of control | T/C [7]: 106 % of control | T/C [8]: 100 % of control | T/C (endpoint: mean survival time, dose: 400.0 mg/kg/injection, schedule: Q01DX001 (ip), vehicle: saline): 116 % of control

Cc1cc(Cc2cc(C)c(O)c(C)c2)cc(C)c1O
T/C [9]: 94 % of control | T/C [10]: 100 % of control | T/C [11]: 97 % of control

COc1ccc(NC(=O)Oc2ccc(Cl)cc2Cl)c(Cl)c1
T/C (endpoint: mean survival time, dose: 25.0 mg/kg/injection, schedule: Q01DX009 (ip), vehicle: Klucel (hydroxypropylcellulose) (HPC)): 95 % of control | T/C (endpoint: mean survival time, dose: 50.0 mg/kg/injection, schedule: Q01DX009 (ip), vehicle: Klucel (hydroxypropylcellulose) (HPC)): 95 % of control and 107 % of control | T/C [12]: 98 % of control and 104 % of control | T/C [1]: 98 % of control | T/C [13]: 120 % of control and 102 % of control | T/C [2]: 104 % of control | T/C [3]: 112 % of control

CCOC(=O)C(=CNc1ccc(OC)cc1[N+](=O)[O-])C(=O)OCC
T/C (endpoint: mean survival time, dose: 100.0 mg/kg/injection, schedule: Q01DX005 (ip), vehicle: saline with Tween-80): 103 % of control | T/C [10]: 93 % of control | T/C (endpoint: mean survival time, dose: 200.0 mg/kg/injection, schedule: Q01DX005 (ip), vehicle: saline with Tween-80): 97 % of control | T/C [11]: 89 % of control | T/C (endpoint: mean survival time, dose: 400.0 mg/kg/injection, schedule: Q01DX005 (ip), vehicle: saline with Tween-80): 91 % of control | T/C (endpoint: mean survival time, dose: 400.0 mg/kg/injection, schedule: Q01DX009 (ip), vehicle: saline with Tween-80): 89 % of control

O=C1Nc2ccc(C(=O)O)c(O)c2C1=O
T/C [14]: 96 % of control | T/C [15]: 100 % of control | T/C [16]: 89 % of control

CC(=O)NNC(=O)c1ccc(Br)cc1
T/C [10]: 107 % of control | T/C [11]: 119 % of control

CC(C)(C)N1CCC1C(O)c1ccccc1 (stereo not drawn)
T/C [17]: 100 % of control | T/C [18]: 102 % of control | T/C [14]: 98 % of control | T/C [4]: 95 % of control

CCOC(=O)c1[nH]c(=S)[nH]c1C(=O)OCC
T/C [7]: 100 % of control

CCOC(=S)SCCSC
T/C [7]: 103 % of control | T/C [8]: 98 % of control

Cc1cccc(/C=C2\Cc3ccccc3C2=O)c1
T/C [14]: 103 % of control | T/C [15]: 95 % of control | T/C [16]: 103 % of control

O=C(/C=C/c1ccccc1)Nc1ccc(Cl)c(Cl)c1
T/C [19]: 100 % of control | T/C [20]: 91 % of control | T/C (endpoint: mean survival time, dose: 400.0 mg/kg/injection, schedule: Q04DX002 (ip), vehicle: saline with Tween-80): 95 % of control

O=S(=O)(Cc1ccc(Cl)cc1Cl)Cc1ccc(Cl)cc1Cl
T/C [12]: 98 % of control | T/C [13]: 91 % of control | T/C (endpoint: mean survival time, dose: 400.0 mg/kg/injection, schedule: Q01DX009 (ip), vehicle: Klucel (hydroxypropylcellulose) (HPC)): 92 % of control

CC(C)(CC(=O)O)CC(=O)O.[NH-]C1CCCCC1[NH-].[Pt+2]
T/C (endpoint: median survival time, dose: 3.12 mg/kg/injection, schedule: Q04DX003 (ip), vehicle: saline): 87 % of control | T/C (endpoint: median survival time, dose: 6.25 mg/kg/injection, schedule: Q04DX003 (ip), vehicle: saline): 102 % of control | T/C (endpoint: median survival time, dose: 12.5 mg/kg/injection, schedule: Q04DX003 (ip), vehicle: saline): 98 % of control | T/C (endpoint: median survival time, dose: 25.0 mg/kg/injection, schedule: Q04DX003 (ip), vehicle: saline): 108 % of control | T/C (endpoint: median survival time, dose: 50.0 mg/kg/injection, schedule: Q04DX003 (ip), vehicle: saline): 101 % of control | T/C (endpoint: median survival time, dose: 100.0 mg/kg/injection, schedule: Q04DX003 (ip), vehicle: saline): 103 % of control | T/C (endpoint: median survival time, dose: 200.0 mg/kg/injection, schedule: Q04DX003 (ip), vehicle: saline): 112 % of control

O=C1C2C3CC4C2C(Br)C2C1C3C42 (stereo not drawn)
T/C [21]: 104 % of control | T/C [22]: 100 % of control

Nc1c(Br)cc2c(c1Br)Cc1cc(Cl)ccc1-2
T/C (endpoint: mean survival time, dose: 25.0 mg/kg/injection, schedule: Q01DX009 (ip), vehicle: saline with Tween-80): 107 % of control | T/C [17]: 111 % of control | T/C [9]: 103 % of control | T/C [18]: 103 % of control | T/C [10]: 102 % of control | T/C [4]: 105 % of control | T/C [5]: 100 % of control | T/C [6]: 86 % of control

CNC(=O)Oc1ccc2c(c1)OCO2
T/C (endpoint: mean survival time, dose: 50.0 mg/kg/injection, schedule: Q01DX009 (ip), vehicle: saline): 96 % of control | T/C (endpoint: mean survival time, dose: 100.0 mg/kg/injection, schedule: Q01DX009 (ip), vehicle: saline): 112 % of control | T/C (endpoint: mean survival time, dose: 200.0 mg/kg/injection, schedule: Q01DX009 (ip), vehicle: saline): 100 % of control

CC1(CC2SCCCS2)SCCCS1
T/C [21]: 96 % of control | T/C [22]: 93 % of control | T/C [19]: 96 % of control | T/C [20]: 86 % of control

CC(=O)NNC(=O)c1ccccc1
T/C (endpoint: mean survival time, dose: 50.0 mg/kg/injection, schedule: Q01DX009 (ip), vehicle: other): 95 % of control and 105 % of control | T/C (endpoint: mean survival time, dose: 100.0 mg/kg/injection, schedule: Q01DX009 (ip), vehicle: other): 97 % of control and 108 % of control | T/C (endpoint: mean survival time, dose: 200.0 mg/kg/injection, schedule: Q01DX009 (ip), vehicle: other): 93 % of control and 97 % of control | T/C (endpoint: mean survival time, dose: 300.0 mg/kg/injection, schedule: Q01DX009 (ip), vehicle: other): 90 % of control

O=C(O)C(O)C(O)C(=O)O.[NH-]C1CCCCCC1[NH-].[Pt+2] (stereo not drawn)
T/C (endpoint: mean survival time, dose: 2.5 mg/kg/injection, schedule: Q04DX003 (ip), vehicle: dextrose): 123 % of control | T/C (endpoint: mean survival time, dose: 5.0 mg/kg/injection, schedule: Q04DX003 (ip), vehicle: dextrose): 153 % of control | T/C (endpoint: mean survival time, dose: 20.0 mg/kg/injection, schedule: Q04DX003 (ip), vehicle: dextrose): 152 % of control and 273 % of control

O=C(O)/C(Br)=C/c1ccccc1
T/C [9]: 100 % of control | T/C [10]: 90 % of control | T/C [4]: 103 % of control | T/C [11]: 90 % of control | T/C [5]: 110 % of control | T/C [6]: 110 % of control

COC(=O)c1nc(SC)n(C2OC(COC(=O)c3ccccc3)C(OC(=O)c3ccccc3)C2OC(=O)c2ccccc2)c1CC#N (stereo not drawn)
T/C (endpoint: median survival time, dose: 9.13 mg/kg/injection, schedule: Q01DX005 (ip), vehicle: saline with Tween-80): 100 % of control | T/C (endpoint: median survival time, dose: 18.25 mg/kg/injection, schedule: Q01DX005 (ip), vehicle: saline with Tween-80): 98 % of control | T/C (endpoint: median survival time, dose: 36.5 mg/kg/injection, schedule: Q01DX005 (ip), vehicle: saline with Tween-80): 91 % of control | T/C (endpoint: median survival time, dose: 73.0 mg/kg/injection, schedule: Q01DX005 (ip), vehicle: saline with Tween-80): 98 % of control | T/C (endpoint: median survival time, dose: 146.0 mg/kg/injection, schedule: Q01DX005 (ip), vehicle: saline with Tween-80): 96 % of control

O=NN(c1ccccc1)c1ccc([N+](=O)[O-])cc1
T/C [10]: 95 % of control | T/C [4]: 92 % of control | T/C [11]: 90 % of control | T/C [5]: 97 % of control | T/C [6]: 98 % of control

CCOC(=O)C(C)(C)CO
T/C (endpoint: mean survival time, dose: 100.0 mg/kg/injection, schedule: Q01DX009 (ip), vehicle: saline sonified): 93 % of control | T/C (endpoint: mean survival time, dose: 200.0 mg/kg/injection, schedule: Q01DX009 (ip), vehicle: saline sonified): 101 % of control | T/C (endpoint: mean survival time, dose: 400.0 mg/kg/injection, schedule: Q01DX009 (ip), vehicle: saline sonified): 103 % of control | T/C (endpoint: mean survival time, dose: 800.0 mg/kg/injection, schedule: Q01DX009 (ip), vehicle: saline sonified): 90 % of control

CCCCCCCCCCCCCCCCC1CCC2CCCCC12 (stereo not drawn)
T/C [14]: 104 % of control | T/C [15]: 107 % of control | T/C [16]: 97 % of control

OC(CN=C/C=C/c1ccccc1)c1ccccc1 (stereo not drawn)
T/C [4]: 95 % of control | T/C [5]: 89 % of control | T/C [6]: 92 % of control

CC1CC(C)(C)N=C(C(Cc2ccccc2)Cc2ccccc2)O1 (stereo not drawn)
T/C [14]: 97 % of control | T/C [15]: 95 % of control

CC(=O)/C(N=O)=C(/C)O
T/C [15]: 88 % of control | T/C [16]: 92 % of control
